Values quoted from earlier work as cited in patent publication US20210401736A1, “SEMI-SOLID CHEWABLE GEL CANNABINOID COMPOSITIONS AND METHODS OF MAKING AND USING THEREOF” (Seattle Gummy Company, priority 2019, published 2021).

Experiments:
5-HT1A receptor = target: T1, 5-HT1A receptor (Homo sapiens, UniProt P08908)
T1 sequence (P08908 1-422): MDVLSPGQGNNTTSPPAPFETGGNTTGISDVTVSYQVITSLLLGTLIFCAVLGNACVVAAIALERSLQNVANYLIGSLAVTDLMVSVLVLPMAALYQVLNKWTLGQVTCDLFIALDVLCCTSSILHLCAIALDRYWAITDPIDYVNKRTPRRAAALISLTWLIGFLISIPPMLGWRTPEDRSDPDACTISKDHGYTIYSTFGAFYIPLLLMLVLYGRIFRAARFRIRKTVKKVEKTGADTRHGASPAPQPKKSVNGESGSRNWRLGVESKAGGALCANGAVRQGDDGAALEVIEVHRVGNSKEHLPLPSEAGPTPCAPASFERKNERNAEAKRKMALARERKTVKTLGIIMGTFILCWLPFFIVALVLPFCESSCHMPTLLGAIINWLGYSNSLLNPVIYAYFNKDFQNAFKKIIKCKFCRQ

CB1 receptor = CB1 receptor (Homo sapiens, UniProt P21554)
[1] = system: alpha2-adrenergic receptor
[2] = 5 mg of CBN versus 10 mg dose of diazepam, according to studies

Sequence of CB1 receptor (P21554 whole entry): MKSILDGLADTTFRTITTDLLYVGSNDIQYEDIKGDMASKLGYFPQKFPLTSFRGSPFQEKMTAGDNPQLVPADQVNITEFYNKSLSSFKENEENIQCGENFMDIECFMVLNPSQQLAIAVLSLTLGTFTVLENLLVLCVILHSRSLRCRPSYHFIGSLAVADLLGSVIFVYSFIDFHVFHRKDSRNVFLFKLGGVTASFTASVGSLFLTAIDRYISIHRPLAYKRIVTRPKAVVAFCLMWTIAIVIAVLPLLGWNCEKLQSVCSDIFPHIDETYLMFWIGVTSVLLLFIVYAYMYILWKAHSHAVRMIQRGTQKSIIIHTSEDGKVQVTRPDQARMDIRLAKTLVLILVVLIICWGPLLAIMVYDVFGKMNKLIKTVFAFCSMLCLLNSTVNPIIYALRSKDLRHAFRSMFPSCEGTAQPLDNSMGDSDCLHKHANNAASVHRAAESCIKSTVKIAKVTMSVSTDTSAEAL

SMILES | solubility in polyols such as glycerol | solubility in water | affinity, 5-HT1A receptor antagonist (5-HT1A receptor) | affinity, CB1 receptor antagonist (CB1 receptor) | affinity, alpha2-adrenergic receptor agonist [1] | sedative effect [2]
C=C(C)[C@@H]1CCC(C)=C[C@H]1c1c(O)cc(CCCCC)cc1O [CBD, cannabidiol, reference compound] | low solubility | water insoluble | – | – | – | –
CCCCCc1cc(O)c(C/C=C(\C)CCC=C(C)C)c(O)c1 [CBG, cannabigerol] | low solubility | water insoluble | moderate affinity | low affinity | high affinity | –
CCCCCc1cc(O)c2c(c1)OC(C)(C)c1ccc(C)cc1-2 [CBN, cannabinol] | – | – | – | – | – | as effective as 10 mg dose of diazepam
